Measurements taken from publication PMC10763615, “Identification and engineering of potent cyclic peptides with selective or promiscuous binding through biochemical profiling and bioinformatic data analysis” (RSC Chemical Biology, 2023).
Positions of bridges follow the written chain, without caps; N, C: chain ends. Residues, ends and D or L forms follow the SMILES beside them.

Assays:
Format in all cases: binding
[1] = target: T1, FGF-R1C ECD (Homo sapiens, UniProt P11362); assay: biochemical; parameters: DNA constructs for the extracellular domain (ECD) of human FGF-; HPC4 (C); made in house; host or cells: HEK 293-6E
T1 sequence (P11362 22-376 limits assumed): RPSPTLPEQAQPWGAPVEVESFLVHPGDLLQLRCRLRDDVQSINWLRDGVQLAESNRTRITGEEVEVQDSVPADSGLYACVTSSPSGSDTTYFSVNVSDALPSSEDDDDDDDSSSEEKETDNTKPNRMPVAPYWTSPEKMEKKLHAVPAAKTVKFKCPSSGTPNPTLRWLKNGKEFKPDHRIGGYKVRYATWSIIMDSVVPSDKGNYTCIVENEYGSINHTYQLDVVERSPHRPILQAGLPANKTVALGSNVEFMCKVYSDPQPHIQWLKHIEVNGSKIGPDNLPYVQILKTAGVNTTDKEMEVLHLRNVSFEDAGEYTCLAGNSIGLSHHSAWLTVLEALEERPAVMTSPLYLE
Experimental: (§1) KD affinity binding measurements were obtained by biolayer interferometry (BLI) instruments (Fortebio Octet HTX, or Sartorius Octet RH16 using either 8 or 16 channel mode.
(§2) For single concentration binding experiments, 50 μM peptide stocks in folding buffer were diluted 1:50 in mRNA display selection buffer (PBS pH7.4 supplemented with 0.05% Tween-20 and 0.01% BSA) in either a 96 well black plate, or a 384 well tilted bottom microplate (ForteBio). Biotinylated FGF-R protein was loaded onto Streptavidin-functionalised biosensors (ForteBio) and immersed into ~1 μM peptide to obtain association kinetics curves. Dissociation kinetics curves were obtained by subsequent immersion of ligand-associated loaded sensors into a 1:50 dilution of folding buffer in mRNA display selection buffer. Fitted KD data was adjusted for concentration as determined by UPLC-CAD.
(§3) For accurate multi-concentration KD determination, dilution series of each peptide were made, and association and dissociation kinetics curves were obtained as above for each concentration to fit a multi-point KD binding model. Data collection and analysis was performed using the Octet Instrument Control […]
(§4) concentration assay kinetics curves shown in supplementary Figure S 19-24.

[2] = target: T2, FGF-R3C ECD (Homo sapiens, UniProt P22607); assay: biochemical; parameters: DNA constructs for the extracellular domain (ECD) of human FGF-; HPC4 (C); made in house; host or cells: HEK 293-6E
T2 sequence (P22607 23-375 limits assumed): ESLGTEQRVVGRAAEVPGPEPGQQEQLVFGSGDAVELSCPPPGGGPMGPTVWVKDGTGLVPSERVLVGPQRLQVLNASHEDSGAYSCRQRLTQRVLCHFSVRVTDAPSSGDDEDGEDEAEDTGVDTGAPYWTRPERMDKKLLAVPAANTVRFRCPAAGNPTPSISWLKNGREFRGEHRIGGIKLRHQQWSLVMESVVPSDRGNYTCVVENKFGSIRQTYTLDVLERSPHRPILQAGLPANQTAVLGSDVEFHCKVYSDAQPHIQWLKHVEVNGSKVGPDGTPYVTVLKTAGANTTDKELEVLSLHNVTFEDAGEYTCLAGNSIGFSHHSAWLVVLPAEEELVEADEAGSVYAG
Experimental: as §1, §2, §3, §4

[3] = target: T3, FGF-R4 ECD (Homo sapiens, UniProt P22455); assay: single concentration BLI of crude peptides; conditions: crude T18 selection 1 (1:1:1) peptides, single concentration BLI (Table S4); read-out: KD (4)
T3 construct: DNA constructs for the extracellular domain (ECD) of human FGF-; HPC4 (C); made in house; host or cells: HEK 293-6E
T3 sequence (P22455 22-369 limits assumed): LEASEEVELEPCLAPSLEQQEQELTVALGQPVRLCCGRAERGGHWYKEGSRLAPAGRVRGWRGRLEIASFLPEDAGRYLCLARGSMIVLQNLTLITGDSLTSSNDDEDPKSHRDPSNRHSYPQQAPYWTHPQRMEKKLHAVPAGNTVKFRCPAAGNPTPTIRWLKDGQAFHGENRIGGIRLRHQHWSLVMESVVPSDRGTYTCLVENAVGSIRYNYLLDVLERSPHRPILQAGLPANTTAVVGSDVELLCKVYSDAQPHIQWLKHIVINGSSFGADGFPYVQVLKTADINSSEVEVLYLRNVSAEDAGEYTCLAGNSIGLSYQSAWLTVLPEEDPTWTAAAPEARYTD
Experimental: as §1
as §2, with “UPLC-CAD. […]” for “UPLC-CAD.”

Row | SMILES | Kd [1] [nM] | Kd [2] [nM] | Kd [3] [nM]
1 | CSCC[C@H](NC(C)=O)C(=O)N[C@H]1CSSC[C@@H](C(=O)NCC(=O)N[C@@H](CO)C(=O)NCC(=O)N[C@@H](CO)C(=O)N[C@@H](CC(=O)O)C(=O)N[C@@H](Cc2ccc(O)cc2)C(=O)N[C@@H](CCCCN)C(=O)N[C@@H](CC(=O)O)C(=O)N[C@@H](CC(=O)O)C(=O)N[C@@H](CC(=O)O)C(=O)N[C@@H](CC(=O)O)C(=O)N[C@@H](CCCCN)C(N)=O)NC(=O)[C@H](Cc2c[nH]c3ccccc23)NC(=O)[C@H](CC(C)C)NC(=O)[C@H](CC(C)C)NC(=O)[C@H](Cc2ccc(O)cc2)NC(=O)[C@H](Cc2ccc(O)cc2)NC(=O)[C@H](Cc2ccccc2)NC(=O)[C@H](CC(C)C)NC(=O)[C@H](Cc2c[nH]cn2)NC(=O)[C@H](CCC(=O)O)NC(=O)[C@H](CCCCN)NC(=O)[C@H](C)NC1=O (Ac-MCAKEHLFYYLLWCGSGSDYKDDDDK-NH2; disulfide 2-14) | > 10000 | > 10000 | 41
2 | CC[C@H](C)[C@@H]1NC(=O)[C@H](CC(C)C)NC(=O)[C@H](Cc2ccccc2)NC(=O)[C@H](Cc2ccc(O)cc2)NC(=O)[C@H](CCCCN)NC(=O)[C@H](C)NC(=O)[C@@H](NC(=O)[C@H](CCSC)NC(C)=O)CSSC[C@@H](C(=O)NCC(=O)N[C@@H](CO)C(=O)NCC(=O)N[C@@H](CO)C(=O)N[C@@H](CC(=O)O)C(=O)N[C@@H](Cc2ccc(O)cc2)C(=O)N[C@@H](CCCCN)C(=O)N[C@@H](CC(=O)O)C(=O)N[C@@H](CC(=O)O)C(=O)N[C@@H](CC(=O)O)C(=O)N[C@@H](CC(=O)O)C(=O)N[C@@H](CCCCN)C(N)=O)NC(=O)[C@H](CCC(N)=O)NC(=O)[C@H](CCC(N)=O)NC(=O)[C@H](Cc2ccc(O)cc2)NC(=O)[C@H](C)NC(=O)[C@H](CCCNC(=N)N)NC(=O)[C@H](Cc2c[nH]c3ccccc23)NC1=O (Ac-MCAKYFLIWRAYQQCGSGSDYKDDDDK-NH2; disulfide 2-15) | > 10000 | > 10000 | 10
3 | CSCC[C@H](NC(C)=O)C(=O)N[C@H]1CSSC[C@@H](C(=O)NCC(=O)N[C@@H](CO)C(=O)NCC(=O)N[C@@H](CO)C(=O)N[C@@H](CC(=O)O)C(=O)N[C@@H](Cc2ccc(O)cc2)C(=O)N[C@@H](CCCCN)C(=O)N[C@@H](CC(=O)O)C(=O)N[C@@H](CC(=O)O)C(=O)N[C@@H](CC(=O)O)C(=O)N[C@@H](CC(=O)O)C(=O)N[C@@H](CCCCN)C(N)=O)NC(=O)[C@H](Cc2c[nH]cn2)NC(=O)[C@H](CC(C)C)NC(=O)[C@H](C(C)C)NC(=O)[C@H](CCC(N)=O)NC(=O)[C@H](Cc2c[nH]c3ccccc23)NC(=O)[C@H](Cc2ccc(O)cc2)NC(=O)[C@H](CCCNC(=N)N)NC(=O)[C@H](C(C)C)NC(=O)[C@H](Cc2ccc(O)cc2)NC(=O)[C@H](Cc2ccc(O)cc2)NC(=O)[C@H](C)NC(=O)[C@H](CC(=O)O)NC1=O (Ac-MCDAYYVRYWQVLHCGSGSDYKDDDDK-NH2; disulfide 2-15) | > 10000 | > 10000 | 36
4 | CC[C@H](C)[C@@H]1NC(=O)[C@H](Cc2ccc(O)cc2)NC(=O)[C@H](Cc2c[nH]c3ccccc23)NC(=O)[C@H](CCCCN)NC(=O)[C@H](C(C)C)NC(=O)[C@H](Cc2ccccc2)NC(=O)[C@H](CCCCN)NC(=O)[C@H](CC(=O)O)NC(=O)[C@@H](NC(=O)[C@H](CCSC)NC(C)=O)CSSC[C@@H](C(=O)NCC(=O)N[C@@H](CO)C(=O)NCC(=O)N[C@@H](CO)C(=O)N[C@@H](CCC(=O)O)C(=O)N[C@@H](CCC(=O)O)C(=O)NCC(=O)N[C@@H](CO)C(=O)NCC(=O)N[C@@H](CO)C(=O)N[C@@H](CC(=O)O)C(=O)N[C@@H](Cc2ccc(O)cc2)C(=O)N[C@@H](CCCCN)C(=O)N[C@@H](CC(=O)O)C(=O)N[C@@H](CC(=O)O)C(=O)N[C@@H](CC(=O)O)C(=O)N[C@@H](CC(=O)O)C(=O)N[C@@H](CCCCN)C(N)=O)NC(=O)[C@H](Cc2c[nH]cn2)NC(=O)[C@H](CCCNC(=N)N)NC(=O)[C@H](Cc2ccccc2)NC(=O)[C@H](C(C)C)NC1=O (Ac-MCDKFVKWYIVFRHCGSGSEEGSGSDYKDDDDK-NH2; disulfide 2-15) | > 10000 | > 10000 | 1
5 | CC[C@H](C)[C@@H]1NC(=O)[C@H](CCCCN)NC(=O)[C@H](Cc2ccc(O)cc2)NC(=O)[C@H](Cc2c[nH]c3ccccc23)NC(=O)[C@H](CC(C)C)NC(=O)[C@H](C(C)C)NC(=O)[C@H]([C@@H](C)O)NC(=O)[C@H](Cc2ccc(O)cc2)NC(=O)[C@H](CC(C)C)NC(=O)[C@H](CC(=O)O)NC(=O)[C@@H](NC(=O)[C@H](CCSC)NC(C)=O)CSSC[C@@H](C(=O)NCC(=O)N[C@@H](CO)C(=O)NCC(=O)N[C@@H](CO)C(=O)N[C@@H](CC(=O)O)C(=O)N[C@@H](Cc2ccc(O)cc2)C(=O)N[C@@H](CCCCN)C(=O)N[C@@H](CC(=O)O)C(=O)N[C@@H](CC(=O)O)C(=O)N[C@@H](CC(=O)O)C(=O)N[C@@H](CC(=O)O)C(=O)N[C@@H](CCCCN)C(N)=O)NC(=O)[C@H](CCC(=O)O)NC(=O)[C@H](CCCCN)NC(=O)[C@H](CCC(N)=O)NC1=O (Ac-MCDLYTVLWYKIQKECGSGSDYKDDDDK-NH2; disulfide 2-16) | 21 | > 10000 | 19
6 | CC[C@H](C)[C@@H]1NC(=O)[C@H](Cc2c[nH]c3ccccc23)NC(=O)[C@H](Cc2c[nH]c3ccccc23)NC(=O)[C@H](CCCNC(=N)N)NC(=O)[C@H](C)NC(=O)[C@H](Cc2ccc(O)cc2)NC(=O)[C@H](CCC(N)=O)NC(=O)[C@H](C)NC(=O)[C@H](CCCNC(=N)N)NC(=O)[C@H]([C@@H](C)CC)NC(=O)[C@H](CO)NC(=O)[C@H](CC(=O)O)NC(=O)[C@@H](NC(=O)[C@H](CCSC)NC(C)=O)CSSC[C@@H](C(=O)NCC(=O)N[C@@H](CO)C(=O)NCC(=O)N[C@@H](CO)C(=O)N[C@@H](CC(=O)O)C(=O)N[C@@H](Cc2ccc(O)cc2)C(=O)N[C@@H](CCCCN)C(=O)N[C@@H](CC(=O)O)C(=O)N[C@@H](CC(=O)O)C(=O)N[C@@H](CC(=O)O)C(=O)N[C@@H](CC(=O)O)C(=O)N[C@@H](CCCCN)C(N)=O)NC1=O (Ac-MCDSIRAQYARWWICGSGSDYKDDDDK-NH2; disulfide 2-15) | > 10000 | > 10000 | 183
7 | CC[C@H](C)[C@@H]1NC(=O)[C@H]([C@@H](C)O)NC(=O)[C@H](C(C)C)NC(=O)[C@H](Cc2ccc(O)cc2)NC(=O)[C@H](Cc2c[nH]c3ccccc23)NC(=O)[C@H](CC(=O)O)NC(=O)[C@@H](NC(=O)[C@H](CCSC)NC(C)=O)CSSC[C@@H](C(=O)NCC(=O)N[C@@H](CO)C(=O)NCC(=O)N[C@@H](CO)C(=O)N[C@@H](CC(=O)O)C(=O)N[C@@H](Cc2ccc(O)cc2)C(=O)N[C@@H](CCCCN)C(=O)N[C@@H](CC(=O)O)C(=O)N[C@@H](CC(=O)O)C(=O)N[C@@H](CC(=O)O)C(=O)N[C@@H](CC(=O)O)C(=O)N[C@@H](CCCCN)C(N)=O)NC(=O)[C@H](CCCCN)NC(=O)[C@H](CCCCN)NC(=O)[C@H](CC(C)C)NC(=O)[C@H](C(C)C)NC(=O)[C@H](CCCCN)NC(=O)[C@H](Cc2ccc(O)cc2)NC1=O (Ac-MCDWYVTIYKVLKKCGSGSDYKDDDDK-NH2; disulfide 2-15) | > 10000 | > 10000 | 8
